Results published in PMC6013267 (Medicinal chemistry research : an international journal for …, 2018).

What was measured:
α4β2* nAChRs = α4β2* nAChRs (Rattus norvegicus, UniProt P09483+P12390); settings: 100 nM drug; rat brain slices
Aβ plaques = experiment: [3H]PIB competition autoradiography in postmortem human AD frontal cortex slices; type: binding; settings: for displacement of [3H]PIB (words, discussion): concentration not restated
amyloid β = settings: ref Salloway et al. 2014, Doody et al. 2014, Siemers et al. 2016, cited from earlier work
[1] = 10 μM drug, control GM/WM approx. 3

Sequence of α4β2* nAChRs (P09483 31-630): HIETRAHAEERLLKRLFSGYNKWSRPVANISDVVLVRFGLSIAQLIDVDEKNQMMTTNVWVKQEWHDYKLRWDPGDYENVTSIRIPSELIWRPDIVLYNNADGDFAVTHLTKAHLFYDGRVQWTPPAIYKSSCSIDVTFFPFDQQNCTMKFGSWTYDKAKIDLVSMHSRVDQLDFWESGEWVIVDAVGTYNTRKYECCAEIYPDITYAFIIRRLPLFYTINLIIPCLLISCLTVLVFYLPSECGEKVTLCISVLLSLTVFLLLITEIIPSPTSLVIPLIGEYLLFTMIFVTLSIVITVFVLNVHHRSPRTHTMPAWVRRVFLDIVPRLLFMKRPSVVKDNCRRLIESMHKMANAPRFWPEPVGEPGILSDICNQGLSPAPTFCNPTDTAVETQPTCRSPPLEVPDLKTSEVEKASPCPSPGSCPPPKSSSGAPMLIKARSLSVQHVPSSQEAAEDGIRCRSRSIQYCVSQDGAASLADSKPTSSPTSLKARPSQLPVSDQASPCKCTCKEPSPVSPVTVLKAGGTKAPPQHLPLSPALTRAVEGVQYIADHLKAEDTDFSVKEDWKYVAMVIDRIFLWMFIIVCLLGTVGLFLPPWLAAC
Sequence of α4β2* nAChRs (P12390 25-500): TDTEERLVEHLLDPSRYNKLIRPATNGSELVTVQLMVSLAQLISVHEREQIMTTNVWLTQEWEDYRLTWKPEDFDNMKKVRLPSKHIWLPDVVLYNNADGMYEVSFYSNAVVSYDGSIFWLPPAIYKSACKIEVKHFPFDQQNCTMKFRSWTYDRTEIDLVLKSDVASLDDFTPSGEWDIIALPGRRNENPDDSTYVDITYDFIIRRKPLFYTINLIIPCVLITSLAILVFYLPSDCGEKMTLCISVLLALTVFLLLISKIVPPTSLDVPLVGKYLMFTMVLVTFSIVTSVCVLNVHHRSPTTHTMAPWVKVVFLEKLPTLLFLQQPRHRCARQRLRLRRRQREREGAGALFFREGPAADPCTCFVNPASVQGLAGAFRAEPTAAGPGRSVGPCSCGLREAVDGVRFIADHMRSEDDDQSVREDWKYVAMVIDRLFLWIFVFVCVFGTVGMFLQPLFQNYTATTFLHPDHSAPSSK

5-(3′-Ethyl 3-methoxy-4-propyloxycinnamate)-3-(2-(S)-pyrrolidinylmethoxy)pyridine [GKS-006]
displacement of [3H]cytisine (α4β2* nAChRs): Displacement of significant amounts

COc1cc(/C=C/C(=O)O)ccc1O [FA, ferulic acid]
effect on [3H]PIB binding (Aβ plaques; 1 μM drug): did not significantly affect the binding of [^3H]PIB | GM/WM ratio of [3H]PIB binding (Aβ plaques; 1 μM drug, control GM/WM ~2): ~ 2 | [3H]PIB levels in GM and WM (Aβ plaques; 10 μM drug): higher levels of [^3H]PIB | GM/WM ratio of [3H]PIB binding (Aβ plaques; [1]): 2 | displacement of [3H]PIB (words, discussion) (Aβ plaques): little displacement

CNc1ccc(N=Nc2ccc(N(C)C)cc2)cc1 [TAZA, 4-methylamino-4'-N,N-dimethylaminoazobenzene]
effect on [3H]PIB binding (Aβ plaques; 1 μM drug): significant displacement of [^3H]PIB | displacement of [3H]PIB (words, discussion) (Aβ plaques): greater than observed by CUR

5-(3-methoxy-4-propyloxycinnamate)-3-(2-(S)-pyrrolidinylmethoxy)pyridine [GKS-007]
effect on [3H]PIB binding (Aβ plaques; 1 μM drug): some inhibitory effect | GM/WM ratio of [3H]PIB binding (Aβ plaques; 1 μM drug, control GM/WM ~2): no significant GM/WM ratio reduction | displacement of [3H]cytisine (α4β2* nAChRs): Displacement of significant amounts

COc1cc(/C=C/C(=O)CC(=O)/C=C/c2ccc(O)c(OC)c2)ccc1O [CUR, curcumin]
reduction in GM/WM [3H]PIB binding (Aβ plaques; 10 μM drug): 50% | GM/WM ratio of [3H]PIB binding (Aβ plaques; [1]): 1.5 | displacement of [3H]PIB (words, discussion) (Aβ plaques): significant displacement effect

FEX-(3-methoxy-4-(1′-aminobutyryloxy)cinnamic acid [KD-003]
[3H]PIB levels in GM and WM (Aβ plaques; 10 μM drug): higher levels of [^3H]PIB | GM/WM ratio of [3H]PIB binding (Aβ plaques; [1]): 2.4

solanezumab: Anti-amyloid β monoclonal antibody
clinical outcome (amyloid β; mild to moderate AD): Did not improve clinical outcomes. Trials continue in early stage of disease | Aβ plaque load (measured by PET imaging) before and after antibody treatment (amyloid β): did not change significantly
